Measurements published in patent publication US8288375B2, “Fungicidal bicyclic pyrazoles” (E.I. du Pont de Nemours and Company, priority 2007, dated 2012).

Key:
Assay type in all cases: in vivo
Pythium aphanidermatum = experiment: Test L: bluegrass pythium blight, test suspension sprayed on bluegrass seedlings, disease rating; conditions: 200 ppm test suspension;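 also: 200 ppm unless marked * meaning 40 ppm or ** meaning 10 ppm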
[1] = system: Colletotrichum orbiculare; experiment: Test F: cucumber Colletotrichum anthracnose, test suspension sprayed on cucumber seedlings, disease rating; conditions: 200 ppm test suspension
Plasmopara viticola = experiment: Test K: grape downy mildew, grape seedlings inoculated and then sprayed, disease rating; conditions: 200 ppm test suspension
Fusarium graminearum = experiment: whole plant or invertebrate; conditions: 200 ppm test suspension
Septoria tritici = experiment: Test E: wheat leaf blotch, test suspension sprayed on wheat seedlings, disease rating; conditions: 200 ppm test suspension;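 also: 200 ppm unless marked * meaning 40 ppm or ** meaning 10 ppm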
Phytophthora infestans = experiment: whole plant or invertebrate; conditions: 200 ppm test suspension
[2] = system: Erysiphe graminis f. sp. tritici; experiment: Test A: wheat powdery mildew, test suspension sprayed on wheat seedlings, disease rating; conditions: 200 ppm test suspension; 100 = 100% disease control, 0 = no control
[3] = system: Puccinia recondite f sp. tritici; experiment: Test B: wheat leaf rust, test suspension sprayed on wheat seedlings, disease rating; conditions: 200 ppm test suspension;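 also: 200 ppm unless marked * meaning 40 ppm or ** meaning 10 ppm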
Rhizoctonia oryzae = experiment: Test I: turf brown patch, test suspension sprayed on creeping bent grass seedlings, disease rating; conditions: 200 ppm test suspension
Botrytis cinerea = experiment: Test H: tomato Botrytis, test suspension sprayed on tomato seedlings, disease rating; conditions: 200 ppm test suspension
Septoria nodorum = experiment: Test D: wheat glume blotch, test suspension sprayed on wheat seedlings, disease rating; conditions: 200 ppm test suspension

Row | SMILES | Test L disease control rating (Pythium aphanidermatum) [%] | Test F disease control rating [1] [%] | Test K disease control rating (Plasmopara viticola) [%] | Test C disease control rating (Fusarium graminearum) [%] | Test E disease control rating (Septoria tritici) [%] | Test J disease control rating (Phytophthora infestans) [%] | Test A disease control rating [2] [%] | Test B disease control rating [3] [%] | Test I disease control rating (Rhizoctonia oryzae) [%] | Test H disease control rating (Botrytis cinerea) [%] | Test D disease control rating (Septoria nodorum) [%]
1 | CCC(C)c1ccc(Nc2nccc(-c3c(-c4ccc(F)cc4)nn4c3CCCC4)n2)cc1 (stereo not shown) [compound 9] | 0 | 79 | 0 | 99 | 0 | 0 | 52 | 97 | 0 | 81 | 92
2 | CCC(C)CNc1nccc(-c2c(-c3ccc(F)cc3)nn3c2CCCC3)n1 (stereo not shown) [compound 6] | 0 | 0 | 0 | 100 | – | 0 | 0 | 73 | 0 | 0 | 0
3 | CC(C)Nc1nccc(-c2c(-c3ccc(F)cc3)nn3c2CCC3)n1 [compound 91] | 88 | 16 | 0 | 100 | – | 0 | 74 | 99 | 0 | 99 | 98
4 | C=CCNc1nccc(-c2c(-c3ccc(F)cc3)nn3c2CCCC3)n1 [compound 15] | 100 | 17 | 0 | 100 | – | 97 | 86 | 99 | 0 | 92 | 98
5 | CNc1nccc(-c2c(-c3ccc(F)cc3)nn3c2CCC3)n1 [compound 90] | 97 | 17 | 0 | 100 | – | 99 | 96 | 99 | 0 | 0 | 100
6 | Nc1nccc(-c2c(-c3ccc(F)cc3)nn3c2CCCC3)n1 [compound 10] | 42 | 0 | 0 | 99 | – | 64 | 90 | 99 | 0 | 63 | 87
7 | NCCNc1nccc(-c2c(-c3ccc(F)cc3)nn3c2CCCC3)n1 [compound 16] | 70 | 0 | 0 | 99 | – | 91 | 20 | 99 | 0 | 19 | 0
8 | CCC(C)Nc1nccc(-c2c(-c3ccc(F)cc3)nn3c2CCC3)n1 (stereo not shown) [compound 85] | 100 | 88 | 0 | 100 | – | 67 | 0 | 99 | 16 | 52 | 82
9 | C=CCNc1nccc(-c2c(-c3ccc(F)cc3)nn3c2CCC3)n1 [compound 95] | 95 | 21 | 0 | 100 | – | 99 | 68 | 100 | 0 | 87 | 99
10 | CCC(C)Nc1nccc(-c2c(-c3ccc(F)cc3F)nn3c2CCC3)n1 (stereo not shown) [compound 87] | 99 | 0 | 0 | 99 | – | 94 | 0 | – | 0 | 0 | 78
11 | CCNc1nccc(-c2c(-c3ccc(F)cc3)nn3c2CCCC3)n1 [compound 18] | 100 | 98 | 0 | 100 | – | 99 | 96 | 100 | 0 | 74 | 97
12 | CCC(C)Nc1nccc(-c2c(-c3ccc(F)cc3)nn3c2CCCC3)n1 (stereo not shown) [compound 19] | 93 | 66 | 0 | 100 | – | 31 | 26 | 99 | 0 | 74 | 98
13 | C#CCNc1nccc(-c2c(-c3ccc(F)cc3)nn3c2CCCC3)n1 [compound 17] | 100 | 77 | 86 | 100 | – | 100 | 64 | 99 | 0 | 97 | 98
14 | Fc1ccc(-c2nn3c(c2-c2ccnc(NC4CC4)n2)CCC3)c(F)c1 [compound 94] | 99 | 24 | 0 | 100 | – | 99 | 82 | 97 | 16 | 96 | 98
15 | COCC(C)Nc1nccc(-c2c(-c3ccc(F)cc3F)nn3c2CCC3)n1 (stereo not shown) [compound 88] | 99 | 0 | 0 | 100 | – | 100 | 0 | – | 0 | 21 | 60
16 | COCC(C)Nc1nccc(-c2c(-c3ccc(OC)cc3)nn3c2CCC3)n1 (stereo not shown) [compound 86] | 99 | 0 | 0 | 0 | – | 94 | 0 | – | 0 | 0 | 51
17 | COc1ccc(-c2nn3c(c2-c2ccnc(NC4CC4)n2)CCC3)cc1 [compound 93] | 90 | 0 | 0 | 99 | – | 95 | 0 | 0 | 0 | 0 | 0
18 | CNc1nccc(-c2c(-c3ccc(F)cc3)nn3c2CCCC3)n1 [compound 13] | 100 | 31 | 0 | 100 | – | 97 | 98 | 99 | 77 | 29 | 97
19 | COCC(C)Nc1nccc(-c2c(-c3ccc(F)cc3)nn3c2CCC3)n1 (stereo not shown) [compound 84] | 100 | 98 | 0 | 100 | – | 93 | 60 | 99 | 16 | 52 | 99
20 | CCC(C)Nc1nccc(-c2c(-c3ccc(F)cc3)nn3c2CCCC3)n1 (stereo not shown) [compound 20] | 100 | 88 | 0 | 100 | – | 99 | 78 | 99 | 0 | 96 | 99
21 | Fc1ccc(-c2nn3c(c2-c2ccnc(NC4CC4)n2)CCC3)cc1 [compound 92] | 99 | 80 | 0 | 100 | – | 99 | 94 | 99 | 0 | 90 | 99
